# From US9266832B2, “Compounds for the treatment of neurodegenerative diseases” (Katholieke Universiteit Levun, priority 2010, dated 2016)
# Tested on: M17-TAU P301L cells
# Assay: Tau-induced toxicity experiment: LDH leakage of retinoic acid incubated M17-TAU P301L cells
# Assay type: cell-based
# Conditions: Homo sapiens, Neuroblastoma cell, 168 h; reduction of LDH activity of retinoic acid incubated M17-TAU P301L neuroblastoma cells, 7 days
# Description: A TAU expression plasmid was constructed by sub-cloning the cDNA of human TAU-P301L (encoding for TAU with proline 301 substituted by a leucine residue) into mammalian expression vector pcDNA3.1 resulting in plasmid pcDNA3.1-TAU P301L. Plasmids pcDNA3.1 and pcDNA3.1-TAU P301L were transfected to human neuroblastoma cells ([…]; ATCC No. CRL-2267) and independent clonal lines with the plasmids stably integrated into the genome were selected. […] Expression of the TAU P301L genes in the cell lines was confirmed by Western analysis.
# In degenerated or dead cells lactate dehydrogenase (LDH) is leaked out of the cells into the extracellular environment due to a loss of plasma-membrane integrity. This principle was used to determine cytotoxicity by quantifying the level of leaked LDH into the growth medium.
# The detailed method for determining TAU cytotoxicity was as follows: From appropriate precultures of M17-3.1 and M17-TAU(P301L) cells were seeded at 2500 cells/cm2 in Optimem Reduced Serum without phenol red (Gibco, Cat. 31985-047) supplemented with 1% fetal calf serum, 1 mM sodium pyruvate, 1× non-essential amino acids, 500 μg/ml G418 0.5× antibiotic/antimycotic. After 3 h of incubation at 37° C./5% CO2 1 volume of Optimem Reduced Serum (same as described above; except without fetal calf serum) supplemented with 2.5 μM retinoic acid (RA) was added. The cells were further incubated for 7 days. Subsequently, LDH activity was determined using Promega Cytotox 96 Non-Radioactive cytotoxicity assay, (Cat. G1780) according the supplier's instructions.
# The M17-TAU P301L cell line made it possible to assess the ability of novel compounds to counteract TAU cytotoxicity. […] These measurements were used to calculate EC50 values of table 2.
row,Compound,EC50
1,"Cc1ccc(Cc2ccc(C(=O)NCCc3c[nH]c4ccc(Cl)cc34)cc2)cc1 [Cpd033, N-(2-(5-chloro-1H-indol-3-yl)ethyl)-4-(4-methylbenzyl)benzamide]",31 nM
2,"COc1ccccc1Cc1cccc(C(=O)NCCc2c[nH]c3ccc(Cl)cc23)c1 [Cpd030, N-(2-(5-chloro-1H-indol-3-yl)ethyl)-3-(2-methoxybenzyl)benzamide]",96 nM
3,"O=C(NCCc1c[nH]c2ccc(Cl)cc12)c1cccc(Cc2cccc(F)c2)c1 [Cpd053, N-(2-(5-chloro-1H-indol-3-yl)ethyl)-3-(3-fluorobenzyl)benzamide]",17 nM
4,"CN(c1ccccc1)c1ccc(C(=O)NCCc2c[nH]c3ccc(Cl)cc23)cc1 [Cpd096, N-(2-(5-chloro-1H-indol-3-yl)ethyl)-4-(methyl(phenyl)amino)benzamide]",470 nM
5,"O=C(NCCc1c[nH]c2ccc(Cl)cc12)c1cccc(Cc2ccco2)c1 [Cpd077, N-(2-(5-chloro-1H-indol-3-yl)ethyl)-3-(furan-2-ylmethyl)benzamide]",17 nM
6,"O=C(NCCc1c[nH]c2ccc(Cl)cc12)c1cccc(Cc2ccc(F)cc2)c1 [Cpd052, N-(2-(5-chloro-1H-indol-3-yl)ethyl)-3-(4-fluorobenzyl)benzamide]",20 nM
7,"Cc1ccc2[nH]cc(CCNC(=O)c3ccc(Cc4cccc(F)c4)cc3)c2c1 [Cpd084, 4-(3-fluorobenzyl)-N-(2-(5-methyl-1H-indol-3-yl)ethyl)benzamide]",26 nM
8,"O=C(NCCc1c[nH]c2ccc(Cl)cc12)c1ccc(Cc2ccccc2Cl)cc1 [Cpd047, N-(2-(5-chloro-1H-indol-3-yl)ethyl)-4-(2-chlorobenzyl)benzamide]",65 nM
9,"O=C(NCCc1c[nH]c2ccc(Cl)cc12)c1ccc(Cc2ccncc2)cc1 [Cpd086, N-(2-(5-chloro-1H-indol-3-yl)ethyl)-4-(pyridin-4-ylmethyl)benzamide]",151 nM
10,"O=C(NCCc1c[nH]c2ccc(Cl)cc12)c1ccc(Cc2ccoc2)cc1 [Cpd081, N-(2-(5-chloro-1H-indol-3-yl)ethyl)-4-(furan-3-ylmethyl)benzamide]",23 nM
11,"Cc1cccc(Cc2ccc(C(=O)NCCc3c[nH]c4ccc(Cl)cc34)cc2)c1 [Cpd036, N-(2-(5-chloro-1H-indol-3-yl)ethyl)-4-(3-methylbenzyl)benzamide]",40 nM
12,"O=C(NCCc1c[nH]c2ccc(Cl)cc12)c1ccc(Oc2cccc(F)c2)cc1 [Cpd105, N-(2-(5-chloro-1H-indol-3-yl)ethyl)-4-(3-fluorophenoxy)benzamide]",112 nM
13,"O=C(NCCc1c[nH]c2ccc(Cl)cc12)c1cccc(Cn2cccn2)c1 [Cpd006, 3-((1H-pyrazol-1-yl)methyl)-N-(2-(5-chloro-1H-indol-3-yl)ethyl)benzamide]",256 nM
14,"O=C(NCCc1c[nH]c2ccc(Cl)cc12)c1ccc(Cc2cccc(C(F)(F)F)c2)cc1 [Cpd042, N-(2-(5-chloro-1H-indol-3-yl)ethyl)-4-(3-(trifluoromethyl)benzyl)benzamide]",31 nM
15,"O=C(NCCc1c[nH]c2ccc(Cl)cc12)c1ccc(Cc2cccc(Cl)c2)cc1 [Cpd046, N-(2-(5-chloro-1H-indol-3-yl)ethyl)-4-(3-chlorobenzyl)benzamide]",7 nM
16,"O=C(NCCc1c[nH]c2ccc(Cl)cc12)c1cccc(Cc2cccs2)c1 [Cpd075, N-(2-(5-chloro-1H-indol-3-yl)ethyl)-3-(thiophen-2-ylmethyl)benzamide]",30 nM
17,"O=C(NCCc1c[nH]c2ccc(Cl)cc12)c1cccc(Cc2cccc(C(F)(F)F)c2)c1 [Cpd044, N-(2-(5-chloro-1H-indol-3-yl)ethyl)-3-(3-(trifluoromethyl)benzyl)benzamide]",55 nM
18,"O=C(NCCc1c[nH]c2ccc(Cl)cc12)c1ccc(CNCc2ccccc2)cc1 [Cpd019, 4-((benzylamino)methyl)-N-(2-(5-chloro-1H-indol-3-yl)ethyl)benzamide]",103 nM
19,"O=C(NCCc1c[nH]c2ccc(Cl)cc12)c1cccc(Oc2ccccc2)c1 [Cpd095, N-(2-(5-chloro-1H-indol-3-yl)ethyl)-3-phenoxybenzamide]",241 nM
20,"N#Cc1ccc(Cc2cccc(C(=O)NCCc3c[nH]c4ccc(Cl)cc34)c2)cc1 [Cpd037, N-(2-(5-chloro-1H-indol-3-yl)ethyl)-3-(4-cyanobenzyl)benzamide]",32 nM
21,"Cn1cc(CCNC(=O)c2ccc(Cc3cccc(F)c3)cc2)c2cc(Cl)ccc21 [Cpd091, N-(2-(5-chloro-1-methyl-1H-indol-3-yl)ethyl)-4-(3-fluorobenzyl)benzamide]",581 nM

row,Compound,EC50
1,"COc1ccc(Cc2ccc(C(=O)NCCc3c[nH]c4ccc(Cl)cc34)cc2)cc1 [Cpd056, N-(2-(5-chloro-1H-indol-3-yl)ethyl)-4-(4-methoxybenzyl)benzamide]",70 nM
2,"O=C(NCCc1c[nH]c2ccc(Cl)cc12)c1ccc(Cc2cccc(F)c2)cc1 [Cpd048, N-(2-(5-chloro-1H-indol-3-yl)ethyl)-4-(3-fluorobenzyl)benzamide]",13 nM
3,"O=C(NCCc1c[nH]c2ccc(Cl)cc12)c1ccc(CNCc2cccs2)cc1 [Cpd026, N-(2-(5-chloro-1H-indol-3-yl)ethyl)-4-((thiophen-2-ylmethylamino)methyl)benzamide]",83 nM
4,"O=C(NCCc1c[nH]c2ccc(Cl)cc12)c1ccc(Nc2cccc(F)c2)cc1 [Cpd106, N-(2-(5-chloro-1H-indol-3-yl)ethyl)-4-(3-fluorophenylamino)benzamide]",82 nM
5,"COc1cccc(Cc2ccc(C(=O)NCCc3c[nH]c4ccc(Cl)cc34)cc2)c1F [Cpd068, N-(2-(5-chloro-1H-indol-3-yl)ethyl)-4-(2-fluoro-3-methoxybenzyl)benzamide]",148 nM
6,"O=C(NCCc1c[nH]c2ccc(N3CCOCC3)cc12)c1ccc(Cc2cccc(F)c2)cc1 [Cpd116, 4-(3-fluorobenzyl)-N-(2-(5-morpholino-1H-indol-3-yl)ethyl)benzamide]",166 nM
7,"O=C(NCCc1c[nH]c2ccc(Cl)cc12)c1ccc(Cc2ccccc2)cc1 [Cpd015, 4-benzyl-N-(2-(5-chloro-1H-indol-3-yl)ethyl)benzamide]",154 nM
8,"O=C(NCCc1c[nH]c2ccc(Cl)cc12)c1ccc(CNCC2CCCCC2)cc1 [Cpd018, N-(2-(5-chloro-1H-indol-3-yl)ethyl)-4-((cyclohexylmethylamino)methyl)benzamide]",168 nM
9,"Cc1cccc(C)c1Cc1ccc(C(=O)NCCc2c[nH]c3ccc(Cl)cc23)cc1 [Cpd062, N-(2-(5-chloro-1H-indol-3-yl)ethyl)-4-(2,6-dimethylbenzyl)benzamide]",398 nM
10,"O=C(NCCc1c[nH]c2ccc(Cl)cc12)c1cccc(Cc2ccccc2F)c1 [Cpd054, N-(2-(5-chloro-1H-indol-3-yl)ethyl)-3-(2-fluorobenzyl)benzamide]",42 nM
11,"O=C(NCCc1c[nH]c2ccc(Cl)cc12)c1ccc(Nc2ccccc2)cc1 [Cpd092, N-(2-(5-chloro-1H-indol-3-yl)ethyl)-4-(phenylamino)benzamide]",76 nM
12,"O=C(NCCc1c[nH]c2ccc(Cl)cc12)c1cccc(Cc2ccc(C(F)(F)F)cc2)c1 [Cpd040, N-(2-(5-chloro-1H-indol-3-yl)ethyl)-3-(4-(trifluoromethyl)benzyl)benzamide]",103 nM
13,"O=C(NCCc1c[nH]c2ccc(Cl)cc12)c1cccc(CNC2CCCCC2)c1 [Cpd024, N-(2-(5-chloro-1H-indol-3-yl)ethyl)-3-((cyclohexylamino)methyl)benzamide]",724 nM
14,"O=C(NCCc1c[nH]c2ccc(Cl)cc12)c1cccc(CNCc2cccs2)c1 [Cpd022, N-(2-(5-chloro-1H-indol-3-yl)ethyl)-3-((thiophen-2-ylmethylamino)methyl)benzamide]",159 nM
15,"O=C(NCCc1c[nH]c2ccc(Cl)cc12)c1ccc(Cc2cccnc2)cc1 [Cpd085, N-(2-(5-chloro-1H-indol-3-yl)ethyl)-4-(pyridin-3-ylmethyl)benzamide]",117 nM
16,"O=C(NCCc1c[nH]c2ccc(Cl)cc12)c1cccc(CNCc2ccccc2)c1 [Cpd023, 3-((benzylamino)methyl)-N-(2-(5-chloro-1H-indol-3-yl)ethyl)benzamide]",94 nM
17,"N#Cc1ccc2[nH]cc(CCNC(=O)c3ccc(Cc4cccc(F)c4)cc3)c2c1 [Cpd115, N-(2-(5-cyano-1H-indol-3-yl)ethyl)-4-(3-fluorobenzyl)benzamide]",75 nM
18,"O=C(NCCc1c[nH]c2ccc(Cl)cc12)c1ccccc1Cc1ccccc1 [Cpd009, 2-benzyl-N-(2-(5-chloro-1H-indol-3-yl)ethyl)benzamide]",240 nM
19,"O=C(NCCc1c[nH]c2ccc(Cl)cc12)c1ccc(Cc2cccc(F)c2)c(F)c1 [Cpd100, N-(2-(5-chloro-1H-indol-3-yl)ethyl)-3-fluoro-4-(3-fluorobenzyl)benzamide]",44 nM
20,"O=C(NCCc1c[nH]c2ccc(C(F)(F)F)cc12)c1ccc(Cc2cccc(F)c2)cc1 [Cpd108, 4-(3-fluorobenzyl)-N-(2-(5-(trifluoromethyl)-1H-indol-3-yl)ethyl)benzamide]",320 nM
